# Laboratory results taken from BindingDB's records for doi:10.1016/j.bmcl.2005.03.089 (Yunnan University, 2022).
# Target: Replicase polyprotein 1ab (Severe acute respiratory syndrome coronavirus 2, UniProt P0DTD1)
# Assay: Inhibition of SARS-CoV-2 MPro incubated for 5 mins by FRET assay
row,SMILES,IC50
1,CC(C)=CCc1cc(/C=C2\OC(=O)C(c3cc(CCC(C)(C)O)c(O)cc3O)=C2O)ccc1O,7.7 µM
2,CC(C)(O)C1Cc2cc(/C=C3\OC(=O)C(c4cc5c(cc4O)OC(C)(C)C(O)C5)=C3O)ccc2O1 (stereo not drawn),9.4 µM
3,CC(C)=CCc1cc(/C=C2\OC(=O)C(c3cc4c(cc3O)OC(C)(C)CC4)=C2O)ccc1O,10.3 µM
